From patent US8765409B2, “Efficient production of heterologous proteins using mannosyl transferase inhibitors” (Merck Sharp & Dohme Corp., priority 2008, dated 2014)

Assays:
[1] = tested on: O-glycosylation of anti-Her2 heavy chain (Hc) in Pichia pastoris strain yGLY4280; experiment: Western blot of anti-Her2 heavy chain O-glycosylation with 2-fold dilutions of Pmt inhibitor in 96-well plates (FIG. 1); format: cell-based; settings: 2-fold dilutions 5 to 0.009 ug/mL, 24 hours; for concentration as low as which O-glycosylation of anti-Her2 Hc was effectively reduced: Western blot
Source text: FIG. 1 illustrates the effect of Pmt inhibitors including the novel inhibitor shown as Example 4 on O-glycosylation of secreted recombinant monoclonal antibody in Pichia pastoris. […] Western blotting using an anti-human H+L antibody was used to detect heavy (Hc) and light (Lc) chains in the growth media of strains treated with increasing amounts of Pmt inhibitor (higher doses in left lanes). The slowest migrating band (marked with asterisk) indicates the O-glycosylated Hc which is eliminated by Pmt inhibitor treatment. […] Strain yGLY4280 was inoculated into 96-well deep well plates (Qiagen, Valencia, Calif.) containing 0.5 ml of BMGY media per well. After 24 hours growth with vigorous shaking, the 96-well plate was centrifuged at 2,000 rpm for five minutes to pellet cells. The media was removed and, following a wash step with 0.5 mL of BMMY media, the cells resuspended in 0.2 mL BMMY media in which Pmt inhibitors were diluted 2-fold across the rows (11 wells). Well #1 contained 5 ug/mL of inhibitor, well #2 contained 2.5 ug/mL and so on until well #10 contained 0.009 ug/mL; well #11 contained no inhibitor. After an additional 24 hours growth with vigorous shaking, the plate was centrifuged at 2,000 rpm for five minutes to pellet cells, and the cleared supernatant subjected to Western blot analysis to detect anti-Her2 expression. The Western blotting was performed as follows: seven μL of the supernatants were separated by reducing polyacrylamide gel electrophoresis (SDS-PAGE) according to Laemmli, U. K. (1970) Nature 227, 680-685 and then electroblotted onto nitrocellulose membranes (Schleicher & Schuell, now Whatman, Inc., Florham Park, N.J.). Anti-Her2 antibody chains were detected on the Western blots using a peroxidase-conjugated anti-human Hc and Lc antibody (Calbiochem/EMD Biosciences, La Jolla, Calif.) and developed using the ImmunoPure Metal Enhanced DAB Substrate Kit (Pierce Biotechnology, Rockford, Ill.).

[2] = tested on: O-glycosylation of human anti-Her2 antibody in Pichia pastoris strain yGLY4280 (Pmt-mediated); experiment: O-glycan occupancy of secreted anti-Her2 antibody (Dionex HPAEC-PAD) from shake-flask cultures treated with Pmt inhibitor; format: cell-based; settings: inhibitor 0.15 ug/mL added at induction; 24 hr in induction media; protein A purified anti-Her2; no inhibitor >14.0
Experimental: Anti-Her2 protein expression for strain yGLY4280 was carried out in shake flasks at 24° C. with buffered glycerol-complex medium (BMGY) consisting of 1% yeast extract, 2% peptone, 100 mM potassium phosphate buffer pH 6.0, 1.34% yeast nitrogen base, 4×10-5% biotin, and 1% glycerol. The induction medium for protein expression was buffered methanol-complex medium (BMMY) consisting of 1% methanol instead of glycerol in BMGY. Pmt inhibitors in 100% methanol were added to the growth medium to a final concentration of 0.15 ug/mL at the time the induction medium was added. This is an intermediate dose that is sufficient to reduce O-glycosylation to roughly 50% of that observed without Pmt inhibitor treatment, and thus allows a comparison of potency for the different inhibitors. Following 24 hr further growth in the induction media, cultures were harvested and centrifuged at 2,000 rpm for five minutes to remove cells from the supernatant.
O-glycan determination was performed using a Dionex-HPLC(HPAEC-PAD) as follows. To measure O-glycosylation reduction, protein was purified from the growth medium using protein A chromatography (Li et al. Nat. Biotechnol. 24(2):210-5 (2006)) and the O-glycans released from and separated from protein by alkaline elimination (beta-elimination) (Harvey, Mass Spectrometry Reviews 18: 349-451 (1999)). This process also reduces the newly formed reducing terminus of the released O-glycan (either oligomannose or mannose) to mannitol. The mannitol group thus serves as a unique indicator of each O— glycan. 0.5 nmole or more of protein, contained within a volume of 100 μL PBS buffer, was required for beta elimination. The sample was treated with 25 μL alkaline borohydride reagent and incubated at 50° C. for 16 hours. About 20 uL arabitol internal standard was added, followed by 10 μL glacial acetic acid. The sample was then centrifuged through a Millipore filter containing both SEPABEADS and AG 50W-X8 resin and washed with water. The samples, including wash, were transferred to plastic autosampler vials and evaporated to dryness in a centrifugal evaporator. 150 μL 1% AcOH/MeOH was added to the samples and the samples evaporated to dryness in a centrifugal evaporator. This last step was repeated five more times. 200 μL of water was added and 100 μL of the sample was analyzed by high pH anion-exchange chromatography coupled with pulsed electrochemical detection-Dionex HPLC(HPAEC-PAD). Average O-glycan occupancy was determined based upon the amount of mannitol recovered.

| Structure (SMILES) | concentration as low as which O-glycosylation of anti-Her2 Hc was effectively reduced [1] [µg/mL] | O-glycan occupancy (moles O-mannose/moles Ab) [2] [moles O-mannose/moles Ab] | effect on O-glycosylation of anti-Her2 Hc (Western blot, in words) ([1]; FIG. 1) |
| --- | --- | --- | --- |
| O=C(O)CN1C(=O)/C(=C/c2ccc(OCCc3ccccc3)c(OC(CO)c3ccccc3)c2)SC1=S (centres unmarked) [Pmti-3, reference compound] | 0.018 | 8.1 |  |
| COCC(COC)(Oc1cc(/C=C2/SC(=S)N(CC(=O)O)C2=O)ccc1OCCc1ccc(F)cc1)c1ccccc1 [Example 1] |  | 4.1 |  |
| O=C(O)CN1C(=O)/C(=C/c2ccc(OCCc3ccc(F)cc3)c(OC(c3ccccc3)c3ccccc3)c2)SC1=S [Example 2] |  | 4.3 |  |
| CC(C)COCC(Oc1cc(/C=C2\SC(=S)N(CC(=O)O)C2=O)ccc1OCCc1ccc(F)cc1)c1ccccc1 (centres unmarked) [Example 4] | 0.018 | 5.2 | reduced O-glycosylation in a dose-dependent fashion |
| O=C(O)CN1C(=O)/C(=C/c2ccc(OCCc3ccc(F)cc3)c(OC(c3ccccc3)C3CCCCC3)c2)SC1=S (centres unmarked) [Example 3] |  | 5.5 |  |
